# Test results published in patent US20110105623A1 (Biogenic Innovations, LLC, priority 2009, published 2011).
# “And” between values parts separate entries of the source, which are not always exact repeats. Identical values can stand only once. Like-named read-outs stand apart in the source and are kept apart here.
# Tests used:
# [1] = test system: Staphylococcus aureus; assay: USP AET, MSM in TSB; format: cell-based; set-up: key to AET microorganism count: Colonies too numerous to count (TNTC); settings: for Log Reduction from Initial Microorganism Inoculum: 1:10 dilution of MSM, 14, 28 Days; for AET microorganism count: 48 hrs
# From the text: (§1) Compounds or formulated products having antimicrobial activity may be evaluated with the United States Pharmacopeia (USP) Antimicrobial Effectiveness Test (AET). The AET involves the addition of specified microorganisms (Candida albicans, Aspergillus niger, Escherichia coli, Pseudomonas aeruginosa and Staphylococcus aureus) directly to a test product at relatively high concentrations to simulate contamination. The product is held for one month, with weekly analysis of microorganism levels. Depending on the route of administration of a product, satisfaction of the AET generally requires a 1 to 3 log reduction in bacteria from initial levels, which should occur in one to two weeks, with no further increase in bacteria after two weeks. For yeast and mold, no increase from the initial inoculums level is permitted.
# (§2) Inoculations were made using Candida albicans, Aspergillus niger, Escherichia coli, Pseudomonas aeruginosa and Staphylococcus aureus. Tryptic soy broth (TSB) was used as the culturing media. […] The inoculated media was held for one month, during which time the added microorganisms were enumerated weekly to determine if they were growing, dying off, or remaining near the initial inoculation level. Data points were measured in triplicate at 48 hours, 3, 5, 14, 20, 28, and 30 days. The acceptance criteria for antimicrobial effectiveness are described in detail in the USP, herein incorporated by reference.
# [2] = test system: Candida albicans; assay: USP AET, MSM in TSB; format: cell-based; set-up: key to AET microorganism count: Colonies too numerous to count (TNTC); settings: for Log Reduction from Initial Microorganism Inoculum: 1:10 dilution of MSM, 14, 28 Days; for AET microorganism count: 48 hrs
# From the text: as §1, §2
# [3] = test system: Pseudomonas aeruginosa; assay: USP <51> AET in cosmetic cream/composition; format: cell-based; settings: for AET microorganism count: 48 hrs-28 days; for Log Reduction from Initial Microorganism Inoculum: 14, 28 Days
# [4] = test system: Streptococcus Pneumonia (#10341); assay: Bacterial viability by bioluminescent ATP assay
# [5] = test system: Escherichia coli (ATCC strain 8739); assay: Growth profile in sterile/non-sterile MSM media, streaked on MacConkey agar; format: cell-based; settings: 5-16% MSM
# Description: Tubes were incubated at 25° C.
# [6] = test system: Herpes Simplex Virus type 1 (ATCC #VR-260); format: cell-based
# [7] = test system: Aspergillus niger; assay: USP Antimicrobial Effectiveness Test (AET), MSM in TSB; format: cell-based; set-up: key to AET microorganism count: Colonies too numerous to count (TNTC); settings: for Log Reduction from Initial Microorganism Inoculum: 1:10 dilution of MSM, 14, 28 Days; for AET microorganism count: 48 hrs
# From the text: as §1, §2
# [8] = test system: Lactobacillus rhamnosus; assay: Growth in MRS broth fortified with MSM; format: cell-based; settings: for Growth: 0.04% MSM in MRS broth, 0-72 hours
# Description: (§3) Each organism (Lactobacillus rhamnosus, Lactobacillus acidophilus, and Bifidobacterium bifidum) was grown in MRS bacterial growth medium (broth) and plated on MRS agar at different time intervals. Results are expressed in colony forming units per milliliter (cfu/mL).
# (§4) The 0.1% and 0.04% test concentrations were prepared by making a 1:10 dilution of the 1% and 0.4% test solutions. Once each set of test media was plated for sterility, they were inoculated at a level of 100 μl of inoculum per 100 g or mLs of test broth (1:1000 inoculum dilutions) with each respective microorganism. All bacterial organisms were incubated at 35° C.+/−2° C. for the duration of the study.
# (§5) All samples were plated on MRS agar at time 0, 12, 36, 48, 60 and 72 hours (+/−45 minutes). All preparations and plating were conducted at room temperature. All plating events were incubated at 35° C.+/−2° C. for at least 2 days or 3 days for Bifidobacterium. Test samples were plated in triplicate at each test date and the averages are reported.
# [9] = test system: Bifidobacterium bifidum; assay: Growth in MRS broth fortified with MSM (anaerobic); format: cell-based; settings: for log higher than the 0% MSM control: 48 hours
# Description: as §3, §4, §5
# Bifidobacterium bifidum, a common microbe used in probiotics, was also tested. All Bifidobacterium samples were incubated under anaerobic conditions.
substance,measurement,setting,value
Methylsulfonylmethane [MSM],Log Reduction from Initial Microorganism Inoculum,[1]; 14 days after inoculation,4.5 log
same,Log Reduction from Initial Microorganism Inoculum,[1]; 28 days after inoculation,4.7 log
same,AET microorganism count,[1]; 1:100 dilution of MSM,TNTC
same,AET microorganism count,[1]; 1:1000 dilution of MSM,TNTC
same,Log Reduction from Initial Microorganism Inoculum,[2]; 14 days after inoculation,4.2 log
same,Log Reduction from Initial Microorganism Inoculum,[2]; 28 days after inoculation,4.4 log
same,AET microorganism count,[2]; 1:100 dilution of MSM,TNTC
same,AET microorganism count,[2]; 1:1000 dilution of MSM,TNTC
same,AET microorganism count,"[3]; 10% MSM in Preservative Free Cosmetic Composition #1, 48 hours after inoculation",7.3 × 10^3
same,AET microorganism count,"[3]; 10% MSM in Preservative Free Cosmetic Composition #1, 7 days after inoculation",<10
same,AET microorganism count,[3]; 10% MSM in cosmetic cream without preservative,<10
same,Log Reduction from Initial Microorganism Inoculum,[3]; 10% MSM in preservative-free jojoba cream,5.3 log
same,Log Reduction from Initial Microorganism Inoculum,"[3]; 10% MSM, Composition #1",5.8 log
same,Log Reduction from Initial Microorganism Inoculum,"[3]; 10% MSM, Composition #2",5.8 log
same,IC50,[4],15.97%
same,reduced viability by,[4]; 5% MSM alone,approximately 5%
same,Growth profile of E. coli,"[5]; 24 hours, NS (sterile saline + non-sterile MSM), 8% MSM",Heavy
same,Growth profile of E. coli,"[5]; 24 hours, NS (sterile saline + non-sterile MSM), 12% MSM",Moderate
same,Growth profile of E. coli,"[5]; 24 hours, NSA (saline + MSM, then sterilized), 8% MSM",Heavy
same,Growth profile of E. coli,"[5]; 24 hours, NSA (saline + MSM, then sterilized), 12% MSM",Moderate
same,Growth profile of E. coli,"[5]; 24 hours, TSB (sterile TSB + non-sterile MSM), 8% MSM",Heavy
same,Growth profile of E. coli,"[5]; 24 hours, TSB (sterile TSB + non-sterile MSM), 10% MSM",Moderate
same,Growth profile of E. coli,"[5]; 24 hours, TSB (sterile TSB + non-sterile MSM), 11% MSM",Few
same,Growth profile of E. coli,"[5]; 24 hours, TSBA (TSB + MSM, then sterilized), 8% MSM",Heavy
same,Growth profile of E. coli,"[5]; 24 hours, TSBA (TSB + MSM, then sterilized), 10% MSM",Moderate
same,Growth profile of E. coli,"[5]; 24 hours, TSBA (TSB + MSM, then sterilized), 11% MSM",Few
same,Growth profile of E. coli,"[5]; 48 hours, NS, 8% MSM",Heavy
same,Growth profile of E. coli,"[5]; 48 hours, NS, 12% MSM",Moderate
same,Growth profile of E. coli,"[5]; 48 hours, NSA, 8% MSM",Heavy
same,Growth profile of E. coli,"[5]; 48 hours, NSA, 12% MSM",Moderate
same,Growth profile of E. coli,"[5]; 48 hours, TSB, 8% MSM",Heavy
same,Growth profile of E. coli,"[5]; 48 hours, TSB, 11% MSM",Moderate
same,Growth profile of E. coli,"[5]; 48 hours, TSB, 12% MSM",Few
same,Growth profile of E. coli,"[5]; 48 hours, TSBA, 8% MSM",Heavy
same,Growth profile of E. coli,"[5]; 48 hours, TSBA, 11% MSM",Moderate
same,Growth profile of E. coli,"[5]; 48 hours, TSBA, 12% MSM",Few
same,Growth profile of E. coli,"[5]; 72 hours, NS, 8% MSM",Heavy
same,Growth profile of E. coli,"[5]; 72 hours, NS, 12% MSM",Moderate
same,Growth profile of E. coli,"[5]; 72 hours, NSA, 8% MSM",Heavy
same,Growth profile of E. coli,"[5]; 72 hours, NSA, 12% MSM",Moderate
same,Growth profile of E. coli,"[5]; 72 hours, TSB, 8% MSM",Heavy
same,Growth profile of E. coli,"[5]; 72 hours, TSB, 11% MSM",Moderate
same,Growth profile of E. coli,"[5]; 72 hours, TSB, 12% MSM",Few
same,Growth profile of E. coli,"[5]; 72 hours, TSBA, 8% MSM",Heavy
same,Growth profile of E. coli,"[5]; 72 hours, TSBA, 11% MSM",Moderate
same,Growth profile of E. coli,"[5]; 72 hours, TSBA, 12% MSM",Few
same,Average TCID50,[6],3.17log10 and 4.67log10 and 4.33log10 and 4.08log10 and 4.83log10 and 5.00log10 and 5.42log10
same,CPE at dilution −8,[6],0000
same,"Response, % reduction",[6],78.620% and 99.320% and 99.790% and 87.980% and 93.240% and 98.800% and 97.860% and 61.980%
same,average log10 reduction,[6]; 1% MSM,0.67 log10
same,average percent reduction,[6]; 1% MSM,78.62%
same,average log10 reduction,[6]; 2% MSM,0.84 log10
same,average percent reduction,[6]; 2% MSM,85.55%
same,average log10 reduction,[6]; 3% MSM,1.00 log10
same,average percent reduction,[6]; 3% MSM,90.00%
same,average percent reduction,[6]; 4% MSM,97.43%
same,"Response, % reduction",[6]; Dose 5.312 mM (log dose 0.7252581),32.390% and 61.980%
same,"Response, % reduction",[6]; Dose 31.871 mM (log dose 1.503396),96.200% and 93.240% and 61.980%
same,"Response, % reduction",[6]; Dose 53.118 mM (log dose 1.725242),87.980% and 93.240% and 98.800%
same,"HillSlope, best-fit value","[6]; log(inhibitor) vs. normalized response, variable slope",1.523
same,"LogIC50, best-fit value","[6]; log(inhibitor) vs. normalized response, variable slope, dose in mM",1.006
same,Log Reduction from Initial Microorganism Inoculum,[7]; 14 days after inoculation,4.3 log
same,Log Reduction from Initial Microorganism Inoculum,[7]; 28 days after inoculation,4.5 log
same,AET microorganism count,[7]; 1:100 dilution of MSM,TNTC*
same,AET microorganism count,[7]; 1:1000 dilution of MSM,TNTC*
same,Growth,[8]; 0 hours after inoculation,1.7 × 10^6 cfu/mL
same,Growth,[8]; 12 hours after inoculation,2.1 × 10^7 cfu/mL
same,Growth,[8]; 24 hours after inoculation,1.5 × 10^9 cfu/mL
same,Growth,[8]; 36 hours after inoculation,1.8 × 10^9 cfu/mL
same,Growth,[8]; 48 hours after inoculation,2.1 × 10^9 cfu/mL
same,Growth,[8]; 60 hours after inoculation,2.6 × 10^9 cfu/mL
same,higher than 0% control,"[8]; first 12 hours, 0.2% MSM",41%
same,higher than 0% control,"[8]; first 12 hours, 1% MSM",47%
same,recovered more than the 0% control,"[8]; first 12 hours, all MSM samples",at least 12%
same,log increases of Bifidobacterium,[9]; 0.2% MSM,2 log
same,log higher than the 0% MSM control,[9]; 0.04% MSM,1 log
same,log higher than the 0% MSM control,[9]; 0.2% MSM,1 log
